Earlier results as cited in patent US20020160058A1, “Antialopecia agent” (priority 1996, published 2002).

Test system: alopecia induced by adriamycin
Settings: reported

For tocopherol, the “effect on alopecia induced by adriamycin” value (oral administration) is given as “preventive effect” and the “effect on alopecia induced by the combined use of adriamycin with other anticancer agents” value is given as “no effect”.
